Drawing on BindingDB's records for doi:10.1016/j.bmcl.2009.04.147 (Banyu Pharmaceutical, 2009), this text covers IC50 for three compounds.

One may read the IC50 as the concentration at which inhibition is half-maximal. Higher therefore signals lower potency.

Sequence of Melanin-concentrating hormone receptor 1 (Q99705 as listed by the source): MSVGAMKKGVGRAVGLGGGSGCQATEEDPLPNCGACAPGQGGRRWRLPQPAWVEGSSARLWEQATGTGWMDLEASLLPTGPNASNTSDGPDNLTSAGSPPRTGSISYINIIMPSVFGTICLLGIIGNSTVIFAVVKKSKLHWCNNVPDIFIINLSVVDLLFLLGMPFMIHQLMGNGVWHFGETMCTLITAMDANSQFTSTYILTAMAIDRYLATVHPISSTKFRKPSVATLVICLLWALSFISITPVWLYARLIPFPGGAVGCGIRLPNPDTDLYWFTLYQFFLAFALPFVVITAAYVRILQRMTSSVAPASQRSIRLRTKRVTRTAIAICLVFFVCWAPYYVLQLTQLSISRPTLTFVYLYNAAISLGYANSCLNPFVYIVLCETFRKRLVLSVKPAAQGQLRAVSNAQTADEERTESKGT

For this test, the target named is Melanin-concentrating hormone receptor 1 (Homo sapiens, UniProt Q99705). As to the kind of experiment: Radioligand Binding Assay (IC50) and Functional Assay (EC50/IC50). The note with it: pH 7.4; 22 °C. The protocol:
Compounds were evaluated for their binding affinity to the membranes of CHO-K1 cells expressing human MCH1R (hMCH1R) in a competition binding assay with [125I]-MCH as the radioligand. After incubation, the membranes were filtrated onto GF/C filter plates and dried. The radioactivity was counted using a microplate scintillation counter (TopCount, PerkinElmer). Non-specific binding was determined by including 1 uM unlabeled MCH in the binding reaction. Antagonistic activity (EC50/IC50) was estimated by the inhibitory effect of compounds on intracellular calcium mobilization induced by MCH using a FLIPR in CHO-K1 cells expressing human MCH1R. The cells were treated with the test compounds for 5 min before addition of MCH.
`CC(C)N(C)c1nc2ccc(NC(=O)CCc3ccc(C(F)(F)F)cc3)cc2[nH]1` [2-aminobenzimidazole-based compound, 8] yielded an IC50 of 21 nM.

In the case of `CN(c1nc2ccc(NC(=O)CCc3ccc(C(F)(F)F)cc3)cc2[nH]1)C1CCCC1` [2-aminobenzimidazole-based compound, 12], the IC50 stood at 22 nM.

In the case of `CN(c1nc2ccc(NC(=O)CCc3ccc(C(F)(F)F)cc3)cc2[nH]1)C1CCCCC1` [2-aminobenzimidazole-based compound, 13], the IC50 is 27 nM.
